Assay results: patent publication US6492344B1, “Syndecan enhancer element and syndecan stimulation of cellular differentiation” (Biotie Therapies Corp., priority 1993, dated 2002)

Key:
Type in all cases: cell-based, mouse
[1] = test system: syndecan-1 expression in 3T3 cells; experiment: Quantitation of cell surface syndecan in 3T3 cells exposed to growth factors; conditions: FGF-2 administered alone
Experimental: Growth factors enhance syndecan expression. NMuMG mouse mammary epithelial cells and 3T3 (NIH) mouse fibroblasts were routinely cultured in bicarbonate-buffered Dulbecco's modified Eagle's medium (DMEM; GIBCO) containing 10% FCS (GIBCO) and antibiotics, as previously described (Elenius et al., J. Biol. Chem. 265:17837-17843 (1990)). For experiments, cells were plated at equal density on culture dishes (Nunc) and grown to 60-70% confluency. Twenty-four hours before supplementing the medium with growth factor(s), the medium on the cells was replaced with fresh medium containing 2% CMS-FCS (Vogel et al., Proc. Natl. Acad. Sci. USA 75:2810-2814 (1978)). Equally treated cultures without growth factor addition served as negative controls. […] For quantitation and isolation of cell surface syndecan, media were discarded at time points indicated in the text and the cell layers were washed twice with ice cold phosphate buffered saline (PBS). […] After subsequent washes by resuspension and centrifugation the cell numbers were measured by counting the nuclei with a Coulter Counter (Coulter Electronics).
For quantitation of syndecan intercalated into the cell membrane, syndecan ectodomain was released by incubating washed cells in 20 μg/ml bovine pancreatic trypsin (Type III; Sigma) in PBS for 10 min on ice bath. […]

syndecan-1 gene = experiment: Syndecan-1 mRNA quantification in 3T3NIH cells exposed to FGF-2; conditions: 3T3NIH cells, 10 ng/ml FGF-2
Text: Northern Blot—RNA was isolated from 3T3 and NMuMG cells using 4 M guanidine isothiocyanate and CsCl density centrifugation (Chirgwin et al., Biochemistry 18:5294-5299 (1979)). RNA samples were size-separated on a 1% agarose formaldehyde gel, transferred to a GeneScreen Plus™ membrane (New England Nuclear) and hybridized with a multi-prime (Amersham) labeled partial cDNA clone for mouse syndecan (PM-4) (Saunders et al., J. Cell Biol. 108:1547-1556 (1989)). After hybridization, the membrane was washed in 2×SSC and 1.0% SDS at 65° C. (high stringency conditions). For rehybridization with glyceraldehyde-3-phosphate-dehydrogenase (GAPDH; Fort et al., Nucleic Acid Res. 13:1431-1442 (1985)), the bound PM-4 probe was removed as recommended by the manufacturer of the filter (NEN).
Following incubation with FGF-2, syndecan MRNA was isolated and quantified. Control incubations without FGF-2 were also performed. Syndecan mRNA was isolated and quantified […] FGF-2 treatment following 6, 12, and 24 hr incubations. The quantification of syndecan mRNA production can be seen in FIG. 11a. GAPDH mRNA was used as a loading control. […] The enhancement appears to be maximal at about 6 hrs of FGF-2 incubation, and decreases thereafter. In the Figure, two individual exposures for each time point are presented.

3T3NIH cells = experiment: 125-IdU incorporation (DNA synthesis) assay in 3T3NIH cells; conditions: pFiRE transfected 3T3NIH cells; 10 ng/ml growth factor (2 ng/ml TGF-β) or 5% FCS
Text: Effect of Various Growth Factors on Enhancer Activation in NIH3T3 Cells. Plasmid pFiRE was transfected into 3T3NIH cells as described, supra. The cells were starved in DMEM medium supplemented with 5% fetal calf serum to about 70% confluence. Fetal calf serum was then replaced with 2% carboxy-methyl-Sephadex eluted fetal calf serum (CMS) 12 hrs before adding the growth factors. Various growth factors in the same medium, 5% fetal calf serum (FCS) supplemented medium or a control containing the medium, without any added growth factors were incubated with the transfected cells for 2 days, and CAT activity was measured. The effect of 10 ng/ml of FGF-2, FGF-1, FGF-4, FGF-7 (KGF), EGF, IGF1, TGFα, IFNγ, and PDGF and 2 ng/ml TGF-β were tested. The human recombinant growth factors were purchased from Peprotech (FGF-1, -2, and -7), Boehringer (FGF-2) or from Calbiochem (PDGF) TGF-β was purchased from Sigma. The effect of the added growth factors and FCS on DNA synthesis was also tested by a 125-IdU incorporation assay. This cell proliferation assay was carried out by incubating cells for 4-6 hrs with 0.25 μCi/ml 5-[^125I]iodo-2′-deoxyuridine (IdU, Amersham), washed several times with PBS and solubilized in 1 M NaOH. Radioactivity was measured using a gamma counter (Wallac).

FGF-2: Basic fibroblast growth factor (FGF-2 or bFGF); recombinant human
syndecan-1 expression [1]: shows enhancement of syndecan-1 expression
time of maximal enhancement of syndecan mRNA (syndecan-1 gene): about 6 hrs
syndecan mRNA expression (syndecan-1 gene; after 4 hrs): significantly enhanced (several fold)
DNA synthesis / cell proliferation (125-IdU incorporation) (3T3NIH cells): significant increase in DNA synthesis
